Experiments:
Experiment in all cases: relative viability (nuclei count vs DMSO), 5 days (fraction); higher = more cells survive
Tanzisertib + Decitabine = compound: O[C@H]1CC[C@H](Nc2ncc3nc(Nc4c(F)cc(F)cc4F)n([C@H]4CCOC4)c3n2)CC1 [Tanzisertib] + Nc1ncn([C@H]2C[C@H](O)[C@@H](CO)O2)c(=O)n1 [Decitabine] (partner 2 µM)
In short: (§1)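 Lung cancer cell lines were pin-tool dosed in 1536-well plates on the day after seeding, with either a lone drug or a fixed anchor-drug dose plus five library-drug doses (not always all listed) in √10 steps. Nuclei were counted on 4× images after 5 days. Relative viability is the ratio of treated-well to vehicle-well nuclei counts, with each value a median of duplicate plates.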

Tanzisertib + Vorinostat = compound: O[C@H]1CC[C@H](Nc2ncc3nc(Nc4c(F)cc(F)cc4F)n([C@H]4CCOC4)c3n2)CC1 [Tanzisertib] + O=C(CCCCCCC(=O)Nc1ccccc1)NO [Vorinostat] (partner 1 µM)
In short: as §1

Tanzisertib + AZD7762 = compound: O[C@H]1CC[C@H](Nc2ncc3nc(Nc4c(F)cc(F)cc4F)n([C@H]4CCOC4)c3n2)CC1 [Tanzisertib] + NC(=O)Nc1cc(-c2cccc(F)c2)sc1C(=O)N[C@H]1CCCNC1 [AZD7762] (partner 0.2 µM)
In short: as §1

[1] = compound: C[C@@H](N)c1ccc(C(=O)Nc2ccnc3[nH]ccc23)cc1 + CC1(C)CCC(c2ccc(Cl)cc2)=C(CN2CCN(c3ccc(C(=O)NS(=O)(=O)c4ccc(N[C@H](CCN5CCOCC5)CSc5ccccc5)c(S(=O)(=O)C(F)(F)F)c4)cc3)CC2)C1 [Navitoclax] (partner 0.5 µM)
In short: as §1

Cell Line	relative viability (Tanzisertib + Decitabine; first compound 0.08 µM)	relative viability (Tanzisertib + Decitabine; first compound 0.253 µM)	relative viability (Tanzisertib + Decitabine; first compound 0.8 µM)	relative viability (Tanzisertib + Decitabine; first compound 2.53 µM)	relative viability (Tanzisertib + Decitabine; first compound 8 µM)	relative viability (Tanzisertib + Vorinostat; first compound 0.08 µM)	relative viability (Tanzisertib + Vorinostat; first compound 0.253 µM)	relative viability (Tanzisertib + Vorinostat; first compound 0.8 µM)	relative viability (Tanzisertib + Vorinostat; first compound 2.53 µM)	relative viability (Tanzisertib + Vorinostat; first compound 8 µM)	relative viability (Tanzisertib + AZD7762; first compound 0.08 µM)	relative viability (Tanzisertib + AZD7762; first compound 0.253 µM)	relative viability (Tanzisertib + AZD7762; first compound 0.8 µM)	relative viability (Tanzisertib + AZD7762; first compound 2.53 µM)	relative viability (Tanzisertib + AZD7762; first compound 8 µM)	relative viability ([1]; first compound 0.04 µM)	relative viability ([1]; first compound 0.1265 µM)	relative viability ([1]; first compound 0.4 µM)	relative viability ([1]; first compound 1.265 µM)	relative viability ([1]; first compound 4 µM)
NCI-H2170	0.483	0.479	0.465	0.485	0.435	0.806	0.864	0.874	0.82	0.705	1.09	0.897	0.791	1.02	0.676	0.682	0.564	0.57	0.61	0.479
HCC-366	–	0.381	0.382	0.348	0.254	–	0.361	0.386	0.428	0.309	–	0.316	0.277	0.192	0.286	1.04	1.15	1.16	–	0.923
NCI-H2347	0.634	0.657	0.701	0.635	0.648	0.744	0.628	0.696	0.588	0.463	0.866	0.718	0.825	0.762	0.662	0.806	0.86	0.846	0.89	0.752
COR-L 105	0.697	0.659	0.643	0.751	0.538	0.834	0.893	0.828	0.903	1	–	–	–	–	–	0.795	0.74	0.783	0.769	0.519
201T	0.862	0.902	0.853	0.857	0.85	1.03	1.01	0.996	0.988	0.764	0.659	0.528	0.578	0.555	0.524	1.15	1.1	1.16	1.2	1.37
NCI-H2126	0.558	0.586	0.574	0.592	0.658	0.86	0.758	0.85	0.727	0.454	1.07	1.03	1.04	1.05	1.05	0.885	0.824	0.908	0.885	0.816
LC-2-ad	0.774	0.788	0.777	0.806	0.722	0.731	0.69	0.702	0.715	0.493	0.839	0.898	0.867	0.833	0.676	0.398	0.566	0.585	0.346	0.262
NCI-H2085	–	0.603	0.583	0.54	0.549	–	0.801	0.917	0.828	0.879	–	0.974	1.02	0.981	1.02	1.23	1.14	1.19	1.09	1
NCI-H358	0.232	0.221	0.189	0.248	0.181	0.764	0.791	0.75	0.65	0.56	0.468	0.494	0.695	0.453	0.387	–	–	–	–	–
H3255	0.799	0.598	0.647	0.482	0.448	0.818	0.938	0.787	0.721	0.345	0.95	0.932	1	0.791	0.554	0.554	0.846	0.769	0.575	0.45
NCI-H2228	–	–	–	–	–	1.03	0.626	0.777	0.728	0.518	–	–	–	–	–	0.897	1.08	1.03	0.985	0.963
CAL-12T	–	–	–	–	–	0.896	0.663	0.909	0.893	0.755	0.606	0.79	0.623	0.636	0.647	1.3	1.33	1.48	1.77	1.47
A-427	0.58	0.567	0.569	0.537	0.631	0.897	0.833	0.874	0.884	0.77	0.756	0.766	0.885	0.705	0.662	1.02	0.992	0.993	–	0.855
NCI-H2009	0.366	0.437	0.387	0.355	0.377	0.728	0.743	0.773	0.753	0.729	–	–	–	–	–	1.03	1.13	1.05	1.01	0.801
ABC-1	1.03	0.958	0.976	1.18	0.836	1.22	1.58	1.15	1.1	0.786	0.914	0.822	0.871	0.649	0.611	–	–	–	–	–
